# In patent US20250288570A1, “TREATMENT OF NEUROLOGICAL DISORDERS” (Praxis Precision Medicines, Inc., priority 2022, published 2025):
# Test system: locomotor activity of male CD-1 mice
# Experiment: Spontaneous locomotor activity (sLMA) test, Example 8
# Assay type: in vivo, mouse
# Protocol: The spontaneous locomotor activity (sLMA) test is a validated model for evaluating the potential effects of a compound on motor function. This study evaluated the effect of Compound 1 on locomotor activity of male CD-1 mice. Doses of Compound 1 used were 3 mg/kg, 5.6 mg/kg, 10 mg/kg and 20 mg/kg administered orally (p.o.).
# Male CD-1 mice (Vital River, Beijing, China) approximately 6 weeks old were used for the study. Body weights were between 25 g and 35 g at the time of experiment.
# Treatment was conducted using Compound 1 and 35% 2-hydroxypropyl-β-cyclodextrin (35% HPBCD, used as a negative control). Compound 1 stock solution was prepared fresh each experiment day in 35% HPBCD and protected from light. The stock solution was diluted with vehicle for lower doses.
# The spontaneous locomotor activity (sLMA) test for each study was carried out over three days, with mice from each treatment group tested each day. The treatment groups included mice dosed with vehicle (35% HPBCD) and with Compound 1 at the dose of 3 mg/kg, 5.6 mg/kg, 10 mg/kg and 20 mg/kg. Mice were randomly assigned into one of the treatment groups.
# A single dose of Compound 1 (3 mg/kg, 5.6 mg/kg, 10 mg/kg and 20 mg/kg) or vehicle (35% HPBCD) was administered to mice via oral gavage 30 minutes prior to testing. Immediately prior to conducting the sLMA test, a brief neurological assessment was performed. Each animal was visually assessed for sedation and ataxia.
# Activity was recorded by overhead cameras and was analyzed offline. Video tracking analysis software was used to determine total distance travelled in millimeters. Distance travelled was also calculated in 5-minute bins.
# All statistical analyses were conducted using GraphPad Prism 9.3. Means were combined and standard error was calculated using the Satterthwaite Approximation to combined standard deviations. […] TD50 and TC50 values were calculated from these fit curves.
smiles,measurement,setting,value
CCOC(F)(F)c1nnc2ccc(-c3cnc(OCC(F)(F)F)c(F)c3)cn12 [Compound 1],sedation or ataxia (in words),3 mg/kg and 5.6 mg/kg,No sedation or ataxia was observed
same,mice with sedation and/or ataxia,10 mg/kg,five
same,mice with sedation and/or ataxia,20 mg/kg,eight
same,sLMA TD50,"p.o., distance travelled",10.4 mg/kg
